Five molecules from patent US5002931A, “GRF analogs VII” (The Salk Institute for Biological Studies, priority 1987, dated 1991) can be followed below.

Square brackets hold non-standard residues; d marks the D form. Ends that are not written are not given here. Peptide text beside a SMILES is read from it. NMeY = CN[C@@H](Cc1ccc(O)cc1)C(=O)O; Nle = CCCC[C@H](N)C(=O)O

The subject of the assay is cells of rat pituitary glands. Description: in vitro assay of growth hormone release from cultured rat pituitary cells, GH measured by radioimmunoassay. Format: cell-based. The note with it: release of GH at equimolar concentrations, side-by-side with synthetic hpGRF(1-40)-OH standard = 100%; incubation 3 to 4 hours. Here is the method: To determine the relative effectiveness of certain representative synthetic peptides to promote the release of growth hormone, in vitro assays are carried out using synthetic hpGRF(1-40)-OH as a standard in side-by-side comparison with equimolar concentrations of the representative analogs which have been synthesized. Cultures are used which include cells of rat pituitary glands removed some three to five days previously. Such cultures are considered optimal for the secretion of growth hormone and are used for the comparative testing, in the general manner described in Vale et al. Endocrinoloqy, 91, 562-572 (1972) and as more particularly described in Vale et al. Endocrinology, 112, 1553-1555 (1983). Incubation with the substance to be tested is carried out for 3 to 4 hours, and aliquots of the culture medium are removed and processed to measure their contents in immunoreactive GH(ir GH) by a well-characterized radioimmunoassay.

Regarding `CCCC[C@H](NC(=O)[C@@H](NC(=O)[C@H](CC(=O)O)NC(=O)[C@H](CCC(N)=O)NC(=O)[C@H](CC(C)C)NC(=O)[C@H](CC(C)C)NC(=O)[C@H](CCCCN)NC(=O)[C@H](CCCNC(=N)N)NC(=O)[C@H](C)NC(=O)[C@H](CO)NC(=O)[C@H](CC(C)C)NC(=O)[C@H](CCC(N)=O)NC(=O)[C@H](C)NC(=O)[C@H](CC(C)C)NC(=O)[C@@H](NC(=O)[C@H](CCCCN)NC(=O)[C@H](CCCNC(=N)N)NC(=O)[C@H](Cc1ccc(O)cc1)NC(=O)[C@H](CO)NC(=O)[C@H](CC(=O)O)NC(=O)[C@@H](NC(=O)[C@H](Cc1ccccc1)NC(=O)[C@@H](NC(=O)[C@H](C)NC(=O)[C@H](CC(=O)O)NC(=O)[C@H](C)NC(=O)[C@H](Cc1ccc(O)cc1)NC)[C@@H](C)CC)[C@@H](C)O)C(C)C)[C@@H](C)CC)C(=O)N[C@@H](CC(N)=O)C(=O)N[C@@H](CCCNC(=N)N)C(N)=O` [[N^a MeTyr^1, Asp^8, Ala^15, Nle^27, Asn^28]-hGRF(1-29)-NH2] (H-[NMeY]ADAIFTDSYRKVLAQLSARKLLQDI[Nle]NR-NH2), the Comparison % was 192%.

Take `CCCC[C@H](NC(=O)[C@@H](NC(=O)[C@H](CC(=O)O)NC(=O)[C@H](CCC(N)=O)NC(=O)[C@H](CC(C)C)NC(=O)[C@H](CC(C)C)NC(=O)[C@@H](CCCCN)NC(=O)[C@H](CCCNC(=N)N)NC(=O)[C@H](C)NC(=O)[C@H](CO)NC(=O)[C@H](CC(C)C)NC(=O)[C@H](CCC(N)=O)NC(=O)CNC(=O)[C@H](CC(C)C)NC(=O)[C@@H](NC(=O)[C@H](CCCCN)NC(=O)[C@H](CCCNC(=N)N)NC(=O)[C@H](Cc1ccc(O)cc1)NC(=O)[C@H](CO)NC(=O)[C@H](CC(N)=O)NC(=O)[C@@H](NC(=O)[C@H](Cc1ccccc1)NC(=O)[C@@H](NC(=O)[C@H](C)NC(=O)[C@H](CC(=O)O)NC(=O)[C@H](C)NC(=O)[C@H](Cc1ccc(O)cc1)NC)[C@@H](C)CC)[C@@H](C)O)C(C)C)[C@@H](C)CC)C(=O)N[C@@H](CO)C(=O)N[C@@H](CCCNC(=N)N)C(N)=O` [[N^a MeTyr^1, D-Lys^21, Nle^27]-hGRF(1-29)-NH]: the Comparison % was 172%.

Molecule `CCCC[C@H](NC(=O)[C@@H](NC(=O)[C@H](CC(=O)O)NC(=O)[C@H](CCC(N)=O)NC(=O)[C@H](CC(C)C)NC(=O)[C@H](CC(C)C)NC(=O)[C@@H](CCCCN)NC(=O)[C@H](CCCNC(=N)N)NC(=O)[C@H](C)NC(=O)[C@H](CO)NC(=O)[C@H](CC(C)C)NC(=O)[C@H](CCC(N)=O)NC(=O)CNC(=O)[C@H](CC(C)C)NC(=O)[C@@H](NC(=O)[C@H](CCCCN)NC(=O)[C@H](CCCNC(=N)N)NC(=O)[C@@H](Cc1ccc(O)cc1)NC(=O)[C@H](CO)NC(=O)[C@H](CC(N)=O)NC(=O)[C@@H](NC(=O)[C@H](Cc1ccccc1)NC(=O)[C@@H](NC(=O)[C@H](C)NC(=O)[C@H](CC(=O)O)NC(=O)[C@H](C)NC(=O)[C@H](Cc1ccc(O)cc1)NC)[C@@H](C)CC)[C@@H](C)O)C(C)C)[C@@H](C)CC)C(=O)N[C@@H](CO)C(=O)N[C@@H](CCCNC(=N)N)C(N)=O` [[N^a MeTyr^1, D-Tyr^10, D-Lys^21, Nle^27]-hGRF(1-29)-NH2] yielded a Comparison % of 40%.

For the molecule `CCCC[C@H](NC(=O)[C@@H](NC(=O)[C@H](CC(=O)O)NC(=O)[C@H](CCC(N)=O)NC(=O)[C@H](CC(C)C)NC(=O)[C@H](CC(C)C)NC(=O)[C@H](CCCCN)NC(=O)[C@H](CCCNC(=N)N)NC(=O)[C@H](C)NC(=O)[C@H](CO)NC(=O)[C@H](CC(C)C)NC(=O)[C@H](CCC(N)=O)NC(=O)[C@H](C)NC(=O)[C@H](CC(C)C)NC(=O)[C@@H](NC(=O)[C@H](CCCCN)NC(=O)[C@H](CCCNC(=N)N)NC(=O)[C@H](Cc1ccc(O)cc1)NC(=O)[C@H](CO)NC(=O)[C@H](CCCCN)NC(=O)[C@@H](NC(=O)[C@H](Cc1ccccc1)NC(=O)[C@@H](NC(=O)[C@H](C)NC(=O)[C@H](CC(=O)O)NC(=O)[C@H](C)NC(=O)[C@H](Cc1ccc(O)cc1)NC)[C@@H](C)CC)[C@@H](C)O)C(C)C)[C@@H](C)CC)C(=O)N[C@@H](CC(N)=O)C(=O)N[C@@H](CCCNC(=N)N)C(N)=O` [[N^a MeTyr^1, Lys^8, Ala^15, Nle^27, Asn^28]-hGRF(1-29)-NH2] (H-[NMeY]ADAIFTKSYRKVLAQLSARKLLQDI[Nle]NR-NH2), the Comparison % is on record as 556%.

With “hGRF(1-40)-OH (YADAIFTNSYRKVLGQLSARKLLQDIMSRQQGESNQERGA-OH; UniProt P01286 32-71, looked up, fragment) [synthetic human pancreatic (tumor) GH releasing factor 1-40 free acid, used as standard in the assays, reference compound]”, the Comparison % amounted to 100%.
